Results taken from patent US20230266302A1, “SYNTHESIS AND USE OF N-BENZYL SULFONAMIDES” (THE UNIVERSITY OF TULSA, priority 2020, published 2023).

Assays:
Experiment in all cases: ATP level assay (CellTiter-Glo), percent of control
Type in all cases: cell-based
[1] = tested on: MCF10A (non-cancerous breast); details: two hour incubation; for activity at 100 µM: Homo sapiens, MCF-10A, 2 h, compound alone, control DMSO, read-out: POC (percent of control) MCF10A
[2] = tested on: MCF7 (breast cancer); details: two hour incubation; for activity at 100 µM: Homo sapiens, MCF7, 2 h, compound alone, control DMSO, read-out: POC (percent of control) MCF7
[3] = tested on: SkBr3 (breast cancer); details: two hour incubation; for activity at 100 µM: Homo sapiens, SK-BR-3, 2 h, compound alone, control DMSO, read-out: POC (percent of control) SkBr3
[4] = tested on: BxPC3 (pancreatic cancer); details: two hour incubation; for activity at 100 µM: Homo sapiens, BXPC-3, 2 h, compound alone, control DMSO, read-out: POC (percent of control) BxPC3
[5] = tested on: T47D (breast cancer); details: two hour incubation; for activity at 100 µM: Homo sapiens, T47D, 2 h, compound alone, control DMSO, read-out: POC (percent of control) T47D
[6] = tested on: HDF (normal cells); details: two hour incubation; for activity at 100 µM: 2 h, compound alone, control DMSO, read-out: POC (percent of control) HDF
[7] = tested on: PC3 (prostate cancer); details: two hour incubation; for activity at 100 µM: 2 h, compound alone, control DMSO, read-out: POC (percent of control) PC3
[8] = tested on: H293 (kidney cancer); details: two hour incubation; for activity at 100 µM: 2 h, compound alone, control DMSO, read-out: POC (percent of control) H293
[9] = tested on: NCI-H196 (lung cancer); details: two hour incubation; for activity at 100 µM: NCI-H196, 2 h, compound alone, control DMSO, read-out: POC (percent of control) NCI-H196
[10] = tested on: MDA-MB (breast cancer); details: two hour incubation; for activity at 100 µM: 2 h, compound alone, control DMSO, read-out: POC (percent of control) MDA-MB
[11] = tested on: HeLa (cervical cancer); details: two hour incubation; for activity at 100 µM: Homo sapiens, HeLa, 2 h, compound alone, control DMSO, read-out: POC (percent of control) HeLa
[12] = compound 100 uM + 2DG (about 10-20 mM)
[13] = compound 100 uM + rotenone (approximately 1.25 μM)

Row | SMILES | activity at 100 µM [1] [%] | POC (percent of control) MCF10A [1, 12] | POC (percent of control) MCF10A [1, 13] | activity at 100 µM [2] [%] | POC (percent of control) MCF7 [2, 12] | POC (percent of control) MCF7 [2, 13] | activity at 100 µM [3] [%] | POC (percent of control) SkBr3 [3, 12] | POC (percent of control) SkBr3 [3, 13] | activity at 100 µM [4] [%] | POC (percent of control) BxPC3 [4, 12] | POC (percent of control) BxPC3 [4, 13] | activity at 100 µM [5] [%] | POC (percent of control) T47D [5, 12] | POC (percent of control) T47D [5, 13] | activity at 100 µM [6] [%] | POC (percent of control) HDF [6, 12] | POC (percent of control) HDF [6, 13] | activity at 100 µM [7] [%] | POC (percent of control) PC3 [7, 12] | further results
1 | O=S(=O)(NCc1cncnc1)c1ccc(Cl)cc1 [Compound 14, 4-chloro-N-(pyrimidin-5-ylmethyl)benzenesulfonamide] | 103 | 119.1% of control | 94.3% of control | 126 | 109.8% of control | 94.4% of control | 107 | 96.9% of control | 98.3% of control | 93.8 | 95.4% of control | 60.9% of control | 86.7 | 106.4% of control | 114.8% of control | 96.1 | 96.3% of control | 90.9% of control | 111 | 101.7% of control | POC (percent of control) PC3 [7, 13]: 101.7% of control; activity at 100 µM [8]: 84.9%; POC (percent of control) H293 [8, 12]: 82.1% of control; POC (percent of control) H293 [8, 13]: 82.4% of control; activity at 100 µM [9]: 86.9%; POC (percent of control) NCI-H196 [9, 12]: 107.3% of control; POC (percent of control) NCI-H196 [9, 13]: 109% of control; activity at 100 µM [10]: 105%; POC (percent of control) MDA-MB [10, 12]: 86% of control; POC (percent of control) MDA-MB [10, 13]: 87.5% of control; activity at 100 µM [11]: 98.3%; POC (percent of control) HeLa [11, 12]: 106.4% of control; POC (percent of control) HeLa [11, 13]: 102.1% of control
2 | O=S(=O)(NCc1cncnc1)c1ccccc1 [Compound 15, N-(pyrimidin-5-ylmethyl)benzenesulfonamide] | 105 | 122% of control | 98.4% of control | 148 | 103.4% of control | 96.4% of control | 117 | 123.3% of control | 93% of control | 98.8 | 70.8% of control | 88.9% of control | 89.6 | 82.5% of control | 109.4% of control | 89.2 | 100.2% of control | 91.1% of control | 109 | 117.6% of control | POC (percent of control) PC3 [7, 13]: 106.4% of control; activity at 100 µM [8]: 99.8%; POC (percent of control) H293 [8, 12]: 74.7% of control; POC (percent of control) H293 [8, 13]: 84.4% of control; activity at 100 µM [9]: 92.3%; POC (percent of control) NCI-H196 [9, 12]: 115.4% of control; POC (percent of control) NCI-H196 [9, 13]: 104.5% of control; activity at 100 µM [10]: 108%; POC (percent of control) MDA-MB [10, 12]: 91.2% of control; POC (percent of control) MDA-MB [10, 13]: 90.8% of control; activity at 100 µM [11]: 103%; POC (percent of control) HeLa [11, 12]: 113.9% of control; POC (percent of control) HeLa [11, 13]: 102.2% of control
3 | Cc1ccc(S(=O)(=O)NCc2cnccn2)cc1 [Compound 16, 4-methyl-N-(pyrazin-2-ylmethyl)benzenesulfonamide] | 113 | 118.9% of control | 86.2% of control | 123 | 93.3% of control | 107.5% of control | 91.9 | 81.4% of control | 104% of control | 103 | 95.4% of control | 72.7% of control | 91.1 | 111.6% of control | 99.3% of control | 94.3 | 95.6% of control | 98.3% of control | 109 | 113.1% of control | POC (percent of control) PC3 [7, 13]: 95.1% of control; activity at 100 µM [8]: 80.1%; POC (percent of control) H293 [8, 12]: 80.7% of control; POC (percent of control) H293 [8, 13]: 81.6% of control; activity at 100 µM [9]: 110%; POC (percent of control) NCI-H196 [9, 12]: 99.2% of control; POC (percent of control) NCI-H196 [9, 13]: 97.6% of control; activity at 100 µM [10]: 106%; POC (percent of control) MDA-MB [10, 12]: 104.5% of control; POC (percent of control) MDA-MB [10, 13]: 92.7% of control; activity at 100 µM [11]: 96.8%; POC (percent of control) HeLa [11, 12]: 106.8% of control; POC (percent of control) HeLa [11, 13]: 102.3% of control
4 | Cc1ccc(S(=O)(=O)NCc2cscn2)cc1 [Compound 17, 4-methyl-N-(1,3-thiazol-4-ylmethyl)benzenesulfonamide] | 92.4 | 97.1% of control | 91.6% of control | 145 | 114.6% of control | 90.6% of control | 90.1 | 88.8% of control | 95.4% of control | 91.4 | 101.4% of control | 75.7% of control | 83 | 89.1% of control | 104.6% of control | 90.7 | 98% of control | 84.1% of control | 113 | 93.7% of control | POC (percent of control) PC3 [7, 13]: 90.9% of control; activity at 100 µM [8]: 80.4%; POC (percent of control) H293 [8, 12]: 85.8% of control; POC (percent of control) H293 [8, 13]: 74.9% of control; activity at 100 µM [9]: 96.8%; POC (percent of control) NCI-H196 [9, 12]: 103.8% of control; POC (percent of control) NCI-H196 [9, 13]: 89.4% of control; activity at 100 µM [10]: 105%; POC (percent of control) MDA-MB [10, 12]: 89.8% of control; POC (percent of control) MDA-MB [10, 13]: 98.1% of control; activity at 100 µM [11]: 90.3%; POC (percent of control) HeLa [11, 12]: 118.8% of control; POC (percent of control) HeLa [11, 13]: 110.3% of control
5 | O=S(=O)(NCc1cscn1)c1ccc(Cl)cc1 [Compound 18, 4-chloro-N-(1,3-thiazol-4-ylmethyl)benzenesulfonamide] | 119 | 92.2% of control | 86.9% of control | 110 | 137.3% of control | 82% of control | 112 | 107.2% of control | 96.6% of control | 100 | 85.4% of control | 94.3% of control | 95.7 | 82.8% of control | 100.6% of control | 96.1 | 93% of control | 95.7% of control | 74 | 94% of control | POC (percent of control) PC3 [7, 13]: 97.2% of control; activity at 100 µM [8]: 67.3%; POC (percent of control) H293 [8, 12]: 96.3% of control; POC (percent of control) H293 [8, 13]: 67.4% of control; activity at 100 µM [9]: 97.4%; POC (percent of control) NCI-H196 [9, 12]: 108.3% of control; POC (percent of control) NCI-H196 [9, 13]: 87.3% of control; activity at 100 µM [10]: 102%; POC (percent of control) MDA-MB [10, 12]: 86.1% of control; POC (percent of control) MDA-MB [10, 13]: 100% of control; activity at 100 µM [11]: 99.5%; POC (percent of control) HeLa [11, 12]: 100% of control; POC (percent of control) HeLa [11, 13]: 97.3% of control
